pIC50: −log10 of the molar value.
Legend:
[1] = Inhibition of F-actin activated rabbit full length myosin 2 ATPase activity after 1 hr by CytoPhos reagent based assay; design: species or system Oryctolagus cuniculus
[2] = Solubility of the compound in Tris-HCl at pH 7.5; type: physicochemical; details: Tris-HCl buffer

Compound	pIC50 [1]	solubility [2]
C=CCN1CCc2cc3c(cc21)N=C1N(c2ccccc2)CC[C@@]1(O)C3=O	5.07	< 40 µM
O=C1c2cc3c(cc2N=C2N(c4ccccc4)CC[C@@]12O)NCC3	4.84	< 50 µM
Cc1ccc2c(c1)C(=O)[C@]1(O)CCN(c3ccccc3)C1=N2	5.99	< 100 µM
O=C1c2cc3cc[nH]c3cc2N=C2N(c3ccccc3)CC[C@@]12O	< 4.70	< 40 µM
O=C1c2cc3ccccc3cc2N=C2N(c3ccccc3)CC[C@@]12O	5.10	< 15 µM
